According to patent US20100286105A1, “METHODS OF TREATING HYPERANDROGENISM AND CONDITIONS ASSOCIATED THEREWITH BY ADMINISTERING A FATTY ACID ESTER OF AN ESTROGEN OR AN ESTROGEN DERIVATIVE” (priority 2006, published 2010):

Columns and labels:
Assay type in all cases: in vivo, human
[1] = Part 2: pharmacokinetics, plasma concentration of oleoyl-estrone; conditions: for Cmax: 100 mg, 100 mg group (highest)
Protocol: (§1) For the second part of the study, […] subjects were divided into […]. Each group was dosed with a single daily dose of 10, 30, 100, or 150 mg oleoyl-estrone for a seven day period. Each individual in the group of 4 was randomized to oleoyl-estrone or placebo.
(§2) Subjects under went a physical examination to establish height, weight, BMI and baseline signs and symptoms. Electrocardiograms and vital signs were taken. Blood for evaluation of hematology, coagulation and clinical chemistry and urine for urinalysis were obtained for each subject. Samples were also taken for hormone analysis, including estrone, estradiol and testosterone. Food-intake and motivation-to-eat using visual analogue scale questionnaires were analyzed.
(§3) Males and post-menopausal females were recruited in both parts of the study. The trial protocol provided that patients should maintain a normal diet and level of activity, but required that patients abstain from consuming alcohol. At baseline, in the placebo group me mean patient weight was 100.5±4.9 kg and BMI 34.4±3.5 and in the oleoyl-estrone group the weight was 100.5±17.8 kg and the average BMI was 34±4.2. The results discussed below are from the second part of the study.

[2] = system: humans; assay: Part 2: body weight and food consumption (visual analogue scale questionnaires)
Protocol: as §1, §2, §3

[3] = system: humans; assay: Part 2: hematology and clinical chemistry (white blood cells, lipids, glucose)
Protocol: as §1, §2, §3

[4] = system: humans; assay: Part 2: seven-day daily oral dose safety and tolerability study in humans
Protocol: (§4) A two-part study was conducted to evaluate the safety, tolerability, and pharmacokinetic (PK) profiles of single and multiple doses of oleoyl-estrone in humans.
as §1, §2, §3

[5] = system: humans; assay: Part 1: single oral dose safety and tolerability study of oleoyl-estrone in humans; conditions: one-time single oral dose
Protocol: as §4
For the first part of the study, thirty-six subjects where divided into groups of six. Each group was dosed with a single dose of 1, 3, 10, 30, 100, or 150 mg of oleoyl-estrone. Each individual in the group of 6 was randomized to oleoyl-estrone or placebo in a ratio of 2:1 where for every two individuals given oleoyl-estrone one is given a placebo.
Subjects under went a physical examination to establish height, weight, BMI and baseline signs and symptoms. Electrocardiograms and vital signs were taken. Blood for evaluation of hematology, coagulation and clinical chemistry and urine for urinalysis were obtained for each subject. Samples were also taken for hormone analysis, including estrone, estradiol and testosterone.

[6] = system: humans; assay: Part 2: hormone levels (estrone, estradiol, testosterone, LH, leptin, CRP); conditions: 7 days daily oral dosing
Protocol: as §1, §2, §3

[7] = oleoyl-estrone treated group, 7 days daily oral dosing

For `CCCCCCCC/C=C\CCCCCCCC(=O)Oc1ccc2c(c1)CC[C@@H]1[C@@H]2CC[C@]2(C)C(=O)CC[C@@H]12` [oleoyl-estrone, [3(Z)]-3-[(1-oxo-9-octadecenyl)oxy]-estra-1,3,5(10)-trien-17-one], the “plasma concentration of oleoyl-estrone versus administered dose level” value ([1]; 10-150 mg daily oral, assay of limited sensitivity) was “did not increase with the administered dose level”, the accumulation in plasma ([1]; Day 7 relative to Day 1, daily oral dosing for 7 consecutive days) was “no clear accumulation in plasma” and the Cmax ([1]; both sexes, human, plasma, oral, Day 1) was 2.4 ng/mL. The Cmax ([1]; both sexes, human, plasma, oral, Day 7) was 3.2 ng/mL, the concentration at 1 day ([1]; both sexes, human, plasma, oral, Day 1, across dose groups, read-out: oleoyl-estrone plasma levels) was 0.3 to 2.4 ng/mL and the concentration at 7 day ([1]; both sexes, human, plasma, oral, Day 7, across dose groups, read-out: oleoyl-estrone plasma levels) was 0.3 to 3 ng/mL. For the same compound, the “sex differences in plasma concentration-time profiles” value ([1]; males and post-menopausal females) was “no clear differences between the sexes”, the “dose dependence of VAS scores and loss of weight” value ([2]; 10-150 mg daily for 7 days) was “more or less dose-dependent, with maximal effects in the 30 mg and 100 mg groups” and the “feelings of hunger, satiety and prospective food consumption (VAS)” value ([2]; 7 days daily oral dosing) was “consistently demonstrated reductions”. The “weight loss compared to placebo” value ([2]; Day 28) was “greater and maintained”, the “mean HDL cholesterol” value ([3]; 7 days daily oral dosing) was “increased” and the “mean LDL cholesterol” value ([3]; 7 days daily oral dosing) was “decreased”. For the same compound, the “HDL:LDL cholesterol ratio” value ([3]; 7 days daily oral dosing, even lower doses) was “increase in the HDL:LDL cholesterol ratio even at the lower doses”, the mean glucose concentration ([3]; 7 days daily oral dosing, up to Day 15) was “fell in a reversible and dose dependent manner and was still low at Day 15” and the total mean cholesterol ([3]; Day 7, 100-150 mg) was “decrease at Day 7 with 100-150 mg”. For the same compound, the “white blood cell count” value ([3]; Day 7 and Day 15) was “increase in white blood cell count was seen in Day 7 but returned to baseline by Day 15”, the “total mean TAGs” value ([3]; all doses, all days) was “dose-dependent increase at all doses and on all days” and the “changes in physical examinations, vital signs, ECGs, coagulation or liver function tests” value ([4]; 7 days daily oral dosing) was “no clinically significant changes”. The post-menopausal bleeding ([4]; oleoyl-estrone study volunteers, similar episode 6 months prior to dosing) was “one had post-menopausal bleeding”, the “adverse effect: back pain (n affected/n treated)” value [4, 7] was 4/17 and the “adverse effect: diarrhea (n affected/n treated)” value [4, 7] was 3/17. For the same compound, the “adverse effect: headache (n affected/n treated)” value [4, 7] was 3/17, the safety and tolerability ([4]; single daily oral dose 10-150 mg for seven days, humans) was “safe, well tolerated at oral doses up to 150 mg” and the serious adverse events ([4]; single daily oral dose up to 150 mg for seven days, humans) was “no serious adverse events were noted”. The safety and tolerability ([5]; 1 to 150 mg) was “safe, well tolerated at oral doses up to 150 mg”, the serious adverse events ([5]; up to 150 mg) was “no serious adverse events were noted” and the “effects on LH” value [6] was “less clear-cut”. The mean estradiol levels [6] was “elevated”, the mean estrone levels [6] was “elevated” and the mean testosterone levels [6] was “suppressed in a reversible and dose dependent manner”. For the same compound, the CRP ([6]; to Day 15) was “increased in a dose-dependent manner, returning to baseline by Day 15” and the leptin ([6]; to Day 15) was “increased in a dose-dependent manner, returning to baseline by Day 15”.
